Patent US4473544A, “Radio-iodine-labelled omega phenyl fatty acids” (priority 1979, dated 1984)

Tests used:
[1] = Renal excretion and extracellular distribution of beta-oxidation degradation products; type: in vivo; details: products of beta-oxidation of radio-iodine-labelled phenyl fatty acids
Description: We have now discovered radio-iodine-labelled omega-phenyl fatty acids, particularly p-I123 -omega-phenyl pentadecanoic acid and its use, to image body organs such as the heart and liver. Through the use of these novel agents, the disadvantages associated with the use of omega-iodine fatty acids, e.g., injecting radioactive iodide as an internal standard and making the necessary corrections, can be completely avoided.
On degradation via beta-oxidation of the iodinated phenyl fatty acid of the invention, the radioactive residue produced is not iodide, but rather iodinated benzoic or iodinated phenylacetic acid. […] Tests in mice have proven that the residual activity in the blood is 2% of the injected dose per gram of blood.

[2] = stated as known; cited from earlier work

iodophenylacetic acid
distribution throughout the extracellular fluid [1]: does not occur | excretion by the kidneys [1]: rapidly and quantitatively excreted by the kidneys | excretion from the body via the kidneys [2]: rapidly excreted from the body via the kidneys
